Measurements: ChEMBL document CHEMBL1201862, “PubChem BioAssay data set” (2004)
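In this assay, cells in 96-well plates receive the compound at five concentrations for 48 hours. Endpoints are linearly interpolated between the surrounding concentrations. Here, GI50 denotes the concentration required for 50% inhibition of growth.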 Active and inactive are the calls of the source. No stated cut-off is given here; in the data, active = GI50 up to about 1.1 µM and inactive = higher.

Columns and labels:
Test in all cases: NCI anticancer screen, dose series, 48 h
[1] = system: Malme-3M
[2] = system: ACHN
[3] = system: LXFL 529
[4] = system: HT-29
[5] = system: HCT-15
[6] = system: 786-0
[7] = system: COLO 205
[8] = system: NCI-H23
[9] = system: OVCAR-8
[10] = system: XF498
[11] = system: K562
[12] = system: TK-10
[13] = system: CAKI-1
[14] = system: OVCAR-4
[15] = system: UACC-62
[16] = system: SF-539
[17] = system: SK-MEL-28
[18] = system: OVCAR-3
[19] = system: MOLT-4
[20] = system: M14
[21] = system: SNB-75
[22] = system: LOX IMVI
[23] = system: SNB-19
[24] = system: IGROV-1
[25] = system: HL-60
[26] = system: HCC 2998
[27] = system: UO-31
[28] = system: EKVX
[29] = system: SW-620
[30] = system: SK-MEL-2
[31] = system: SF-295
[32] = system: SK-MEL-5
[33] = system: HOP-62
[34] = system: A498
[35] = system: UACC-257
[36] = system: HOP-18
[37] = system: A549
[38] = system: SN12C
[39] = system: HCT-116
[40] = system: RXF 393
[41] = system: SR
[42] = system: DLD-1
[43] = system: KM-20L2
[44] = system: OVCAR-5
[45] = system: SF-268
[46] = system: U-251
[47] = system: M19-MEL
[48] = system: NCI-H460
[49] = system: CCRF-CEM
[50] = system: SK-OV-3
[51] = system: KM12
[52] = system: DMS-114
[53] = system: HOP-92
[54] = system: DMS-273

Compound: Cc1c2c(cc3c1C(=O)C(=O)C1=C3OC[C@@H]1C)C(C)(C)CCC2
- GI50 [1]: 15.6 µM (inactive)
- GI50 [2]: 16 µM (inactive)
- GI50 [3]: 16 µM (inactive)
- GI50 [4]: 16.6 µM (inactive)
- GI50 [5]: 14.2 µM
- GI50 [6]: 23.4 µM (inactive)
- GI50 [7]: 7.29 µM (inactive)
- GI50 [8]: 14.8 µM (inactive)
- GI50 [9]: 18.2 µM (inactive)
- GI50 [10]: 29.9 µM (inactive)
- GI50 [11]: 14.9 µM (inactive)
- GI50 [12]: 26.5 µM (inactive)
- GI50 [13]: 19.3 µM (inactive)
- GI50 [14]: 17.9 µM (inactive)
- GI50 [15]: 13.2 µM (inactive)
- GI50 [16]: 16.3 µM (inactive)
- GI50 [17]: 14 µM (inactive)
- GI50 [18]: 13.9 µM (inactive)
- GI50 [19]: 12.4 µM (inactive)
- GI50 [20]: 13.9 µM (inactive)
- GI50 [21]: 26.1 µM (inactive)
- GI50 [22]: 7.43 µM (inactive)
- GI50 [23]: 22.1 µM (inactive)
- GI50 [24]: 19.7 µM (inactive)
- GI50 [25]: 10.3 µM (inactive)
- GI50 [26]: 20.4 µM (inactive)
- GI50 [27]: 18.7 µM (inactive)
- GI50 [28]: 20.9 µM (inactive)
- GI50 [29]: 15.1 µM (inactive)
- GI50 [30]: 6.15 µM (inactive)
- GI50 [31]: 14.5 µM (inactive)
- GI50 [32]: 13.3 µM (inactive)
- GI50 [33]: 21.5 µM (inactive)
- GI50 [34]: 22.3 µM (inactive)
- GI50 [35]: 15.1 µM (inactive)
- GI50 [36]: 17.1 µM (inactive)
- GI50 [37]: 13 µM (inactive)
- GI50 [38]: 16.8 µM (inactive)
- GI50 [39]: 13.8 µM (inactive)
- GI50 [40]: 17.9 µM (inactive)
- GI50 [41]: 11.6 µM (inactive)
- GI50 [42]: 18.7 µM (inactive)
- GI50 [43]: 19.5 µM (inactive)
- GI50 [44]: 21.5 µM (inactive)
- GI50 [45]: 14.1 µM (inactive)
- GI50 [46]: 16.2 µM (inactive)
- GI50 [47]: 2.64 µM (inactive)
- GI50 [48]: 13.7 µM (inactive)
- GI50 [49]: 18 µM (inactive)
- GI50 [50]: 41.9 µM (inactive)
- GI50 [51]: 11.9 µM (inactive)
- GI50 [52]: 16.8 µM (inactive)
- GI50 [53]: 21.3 µM (inactive)
- GI50 [54]: 14.4 µM (inactive)
